Assay results: patent US20250115926A1, “DEREGULATED DHS AND TYRA ENZYMES OF GRASSES ENABLE EFFICIENT PRODUCTION OF BOTH TYROSINE AND PHENYLALANINE” (Wisconsin Alumni Research Foundation, priority 2023, published 2025)

Key:
[1] = target: T1, Brachypodium distachyon BdTyrA1, SEQ ID NO: 33, recombinant (Brachypodium distachyon, UniProt A0A2K2DMR9); assay: TyrA arogenate dehydrogenase kinetics and tyrosine inhibition (340 nm); type: biochemical
T1 construct: from genomic DNA
T1 sequence (A0A2K2DMR9 539-925): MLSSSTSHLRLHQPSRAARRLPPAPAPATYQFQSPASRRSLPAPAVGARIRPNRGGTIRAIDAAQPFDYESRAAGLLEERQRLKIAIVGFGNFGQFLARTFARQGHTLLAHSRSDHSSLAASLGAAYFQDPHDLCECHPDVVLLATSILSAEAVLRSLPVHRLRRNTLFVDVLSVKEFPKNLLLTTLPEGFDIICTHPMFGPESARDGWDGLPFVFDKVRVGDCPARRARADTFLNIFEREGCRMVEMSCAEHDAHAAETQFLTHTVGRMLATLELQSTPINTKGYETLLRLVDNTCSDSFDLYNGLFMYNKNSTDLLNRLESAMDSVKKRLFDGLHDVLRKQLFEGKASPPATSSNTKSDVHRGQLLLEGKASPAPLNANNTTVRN
From the text: (§1) Next, to study the biochemical properties of grass TyrA enzymes, we generated and characterized recombinant purified TyrA proteins from Brachypodium (BdTyrA) and Sorghum (SbTyrA), two distantly related grass species^43, 44. Whereas TyrA enzymes from dicot plants are generally NADP^+-dependent arogenate dehydrogenases^20, 39, 45, except for NADP^+-prephenate dehydrogenases in the legume family^40, 46, previous reports on the substrate preference of grass TyrA enzymes are inconclusive^17, 19. […] NAD^+-prephenate dehydrogenase activity was absent in all cases, ruling out a significant contamination of the enzyme preparations with the TyrA enzyme from E. coli^47.48.

[2] = target: T2, Brachypodium distachyon BdTyrAnc (non-canonical TyrA), SEQ ID NO: 37, recombinant (Brachypodium distachyon, UniProt I1GYB3); assay: as above; type: biochemical
T2 construct: from cDNA
T2 sequence (I1GYB3 58-361): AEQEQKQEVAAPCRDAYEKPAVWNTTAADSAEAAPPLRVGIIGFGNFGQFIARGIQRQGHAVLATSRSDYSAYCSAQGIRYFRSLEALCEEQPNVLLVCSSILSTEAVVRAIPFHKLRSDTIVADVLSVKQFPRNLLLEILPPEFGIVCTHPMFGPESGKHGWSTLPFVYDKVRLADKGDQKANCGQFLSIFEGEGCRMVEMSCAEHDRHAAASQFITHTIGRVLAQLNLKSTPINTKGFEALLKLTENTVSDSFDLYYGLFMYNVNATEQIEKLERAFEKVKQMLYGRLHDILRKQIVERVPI
From the text: as §1

[3] = target: T3, Sorghum bicolor SbTyrA2, SEQ ID NO: 41, recombinant (Sorghum bicolor, UniProt C5Z9D2); assay: as above; type: biochemical
T3 construct: from genomic DNA
T3 sequence (C5Z9D2 53-389): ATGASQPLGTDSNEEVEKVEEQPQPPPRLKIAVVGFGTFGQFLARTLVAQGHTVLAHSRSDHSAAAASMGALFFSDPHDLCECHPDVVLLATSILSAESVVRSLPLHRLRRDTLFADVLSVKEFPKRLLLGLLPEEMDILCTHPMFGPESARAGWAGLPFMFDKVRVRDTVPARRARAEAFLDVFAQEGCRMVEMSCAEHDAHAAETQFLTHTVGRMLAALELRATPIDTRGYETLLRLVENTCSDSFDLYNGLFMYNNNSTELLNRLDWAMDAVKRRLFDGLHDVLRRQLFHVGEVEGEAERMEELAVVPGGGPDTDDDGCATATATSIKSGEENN
From the text: as §1

[4] = target: Brachypodium distachyon BdDHS1a, SEQ ID NO: 1, recombinant (Brachypodium distachyon, UniProt I1GSB3); assay: DHS activity: kinetics and effector inhibition; settings: read-out: inhibition at 0.5 mM
From the text: (§2) To examine their functional properties, the recombinant DHS enzymes of Brachypodium were produced and characterized in vitro.
(§3) As recent studies have shown that plant DHS enzymes are feedback-inhibited by multiple effector molecules^15, 16, we tested the effect of AAAs and another 14 related metabolites, including various intermediates of the shikimate pathway and the pathways downstream of AAAs, on Brachypodium DHS enzymes.
(§4) The DHS assay for UHPLC-MS quantification was set up using the same settings as described in the previous paragraph for the UV-based DHS assay, which guaranteed at least 10 minutes of reaction linearity. After a 10-minute incubation, 20 μL of the reactions (out of a total volume of 50 μL) were mixed into 80 μL of methanol, vortexed and transferred to vials for injection. Analysis of DAHP by UHPLC-MS was conducted using the same chromatographic settings as described for the UHPLC-MS analysis of soluble metabolites and compared with an authentic DAHP standard (Sta. Cruz biotechnology, cat. no. sc-216432).

[5] = target: Brachypodium distachyon BdDHS1b, SEQ ID NO: 3, recombinant (Brachypodium distachyon, UniProt I1H4W3); assay: DHS activity: kinetics and effector inhibition; type: biochemical; settings: read-out: inhibition at 0.5 mM
From the text: as §2, §3, §4

[6] = target: Brachypodium distachyon BdDHS2, SEQ ID NO: 5, recombinant (Brachypodium distachyon, UniProt I1I809); assay: DHS activity: kinetics and effector inhibition; type: biochemical; settings: read-out: inhibition at 0.5 mM
From the text: as §2, §3, §4

[7] = test system: recombinant Sorghum DHS enzymes; assay: DHS activity: effector inhibition; type: biochemical, Sorghum bicolor; settings: 0.5 mM (FIG. 17)
Protocol: In contrast, BdDHS1b was not inhibited by arogenate even up to 2.5 mM. In fact, DHS1b activity increased in the presence of high concentrations of arogenate (FIG. 4F), likely due to high concentrations of contaminant NaCl present in the arogenate preparation (FIG. 16). Under acidic conditions, arogenate is known to undergo a spontaneous dehydration and decarboxylation into […]. […] Like in Brachypodium DHS enzymes, 0.5 mM arogenate inhibited SbDHS1a and SbDHS2 at ˜50% and ˜40%, respectively, but had no effect on SbDHS1b.

grass DHS enzymes = assay: DHS activity: effector inhibition; type: biochemical; settings: 0.5 mM (FIGS. 4, 15, 17)
Protocol: as §3, §4

[8] = IC50 (tyrosine), 0.5 mM arogenate, 1 mM NADP^+

Sequence of Brachypodium distachyon BdDHS1a, SEQ ID NO: 1, recombinant (I1GSB3 46-537): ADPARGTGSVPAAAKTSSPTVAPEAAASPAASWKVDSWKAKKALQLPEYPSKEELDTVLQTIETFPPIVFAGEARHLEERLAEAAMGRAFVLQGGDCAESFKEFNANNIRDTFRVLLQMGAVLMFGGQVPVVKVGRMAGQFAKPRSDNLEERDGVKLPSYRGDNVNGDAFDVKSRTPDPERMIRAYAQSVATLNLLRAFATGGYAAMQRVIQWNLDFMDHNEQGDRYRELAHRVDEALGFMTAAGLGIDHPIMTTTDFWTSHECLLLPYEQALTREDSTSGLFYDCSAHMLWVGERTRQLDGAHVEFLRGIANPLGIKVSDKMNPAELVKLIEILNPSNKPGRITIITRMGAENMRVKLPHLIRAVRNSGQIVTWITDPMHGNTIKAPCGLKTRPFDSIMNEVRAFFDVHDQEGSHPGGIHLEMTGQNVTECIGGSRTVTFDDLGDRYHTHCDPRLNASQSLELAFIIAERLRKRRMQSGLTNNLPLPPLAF
Sequence of Brachypodium distachyon BdDHS1b, SEQ ID NO: 3, recombinant (I1H4W3 37-542): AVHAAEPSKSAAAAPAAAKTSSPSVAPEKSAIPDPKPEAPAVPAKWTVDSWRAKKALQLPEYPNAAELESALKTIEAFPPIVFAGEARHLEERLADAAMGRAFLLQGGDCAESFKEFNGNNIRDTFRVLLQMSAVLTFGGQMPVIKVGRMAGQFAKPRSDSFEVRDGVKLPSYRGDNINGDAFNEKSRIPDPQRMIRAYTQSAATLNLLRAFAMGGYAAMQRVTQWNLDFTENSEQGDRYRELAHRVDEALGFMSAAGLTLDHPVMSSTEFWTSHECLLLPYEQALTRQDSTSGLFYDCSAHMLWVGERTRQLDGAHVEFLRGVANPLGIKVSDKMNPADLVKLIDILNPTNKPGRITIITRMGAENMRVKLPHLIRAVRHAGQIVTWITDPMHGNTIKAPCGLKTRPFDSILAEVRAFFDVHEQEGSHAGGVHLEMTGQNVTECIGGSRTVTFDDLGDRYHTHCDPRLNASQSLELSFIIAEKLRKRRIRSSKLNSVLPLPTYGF
Sequence of Brachypodium distachyon BdDHS2, SEQ ID NO: 5, recombinant (I1I809 31-503): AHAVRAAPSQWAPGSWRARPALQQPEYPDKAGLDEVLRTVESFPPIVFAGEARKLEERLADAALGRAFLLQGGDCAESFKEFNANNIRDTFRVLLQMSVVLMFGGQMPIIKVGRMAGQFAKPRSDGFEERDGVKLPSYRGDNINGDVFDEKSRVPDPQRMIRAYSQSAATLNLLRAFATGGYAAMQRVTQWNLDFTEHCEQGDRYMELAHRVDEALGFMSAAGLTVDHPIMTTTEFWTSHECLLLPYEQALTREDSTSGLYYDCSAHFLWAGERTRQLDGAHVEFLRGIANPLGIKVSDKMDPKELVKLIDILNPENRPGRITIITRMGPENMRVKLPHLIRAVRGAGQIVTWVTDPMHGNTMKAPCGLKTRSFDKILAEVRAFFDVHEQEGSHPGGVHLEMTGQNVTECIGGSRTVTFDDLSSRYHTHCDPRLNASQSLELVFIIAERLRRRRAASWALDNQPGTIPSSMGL

N[C@@H](Cc1ccc(O)cc1)C(=O)O [tyrosine]
Ki [1]: 46 ± 3 µM
activity at 200 μM of tyrosine ([1]; 200 μM tyrosine): fully inactive
mode of feedback inhibition by tyrosine ([1]; FIG. 12): competitive
IC50 [1, 8]: 66 ± 2 µM
IC50 [2, 8]: 242 ± 45 µM
Ki ([2]; calculated from Km and IC50, competitive inhibition model): 64 ± 25 µM
activity at 200 µM ([2]; read-out: activity retained at 200 μM of tyrosine): > 50%
mode of inhibition by tyrosine ([2]; with respect to arogenate): competitive with arogenate
IC50 [3]: 47 ± 23 µM
Ki [3]: 36 ± 13 µM
inhibition at 500 µM [4]: ~25%
inhibition at 500 µM [5]: ~10%
inhibition at 500 µM [6]: ~10%
inhibition at 0.5 mM [7]: no strong inhibition
effect on grass DHS at 0.5 mM (grass DHS enzymes): little effect
